Read-outs that look alike come from different tables or passages of the source.

Test [1] addresses human DGKζ (Homo sapiens (Human), UniProt Q13574). In words: biochemical. Particulars: liposome (LIPGLO) assay. In kind it is biochemical.
The target in test [2] is Human DGKα(9-727) (Homo sapiens (Human), UniProt P23743). Nature of the test: biochemical. Particulars: Table A; liposome (LIPGLO) assay; read-out: DGKα.
For test [3], the system named is Human venous whole blood (IFN-γ). Nature of the test: Human whole blood IFN-γ assay. Format: cell-based. Here is the method:
Assay 10: Human Whole Blood IFN-γ Assay
Human venous whole blood (22.5 μL per well), obtained from healthy donors, was pre-treated with compounds for one hour at 37° C. in a humidified 95% air/5% CO2 incubator. The blood was stimulated with 2.5 μL anti-human CD3 and anti-CD28 mAb at a final concentration of 1 μg/mL each for 24 hours at 37° C. IFN-γ in the supernatants was measured using AlphLISA kit (Cat #AL217).

The test system of test [4] is human venous whole blood, CD8 positive population (pERK). In words: DGK human whole blood pERK assay. In kind it is cell-based. A digest of the protocol: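 Heparinized whole blood from healthy donors preincubated with compound 1 hour at 37° C. Stimulation used anti-CD3 at 1 μg/mL final plus cross-linking goat anti-mouse IgG for 15 minutes. Flow cytometry scored percentage pERK-positive cells among CD8-positive cells.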

The subject of test [5] is naïve human CD8 T cells. In words: CellTiter-Glo CD8 T cell proliferation assay. Format: cell-based. The following applies: Homo sapiens, read-out: CD8 GLO Normalized EC50. The method, then: Assay 4: CellTiter-Glo CD8 T Cell Proliferation Assay
Frozen naïve human CD8 T cells were thawed in RPMI+10% FBS, incubated for 2 h in 37° C., and counted. The 384-well tissue culture plate was coated overnight at 4° C. with 20 μl anti-human CD3 at 0.1 μg/mL in plain RPMI, which was removed off the plate before 20 k/40 μL CD8 T cells with 0.5 μg/ml soluble anti-human CD28 were added to each well. The compounds were echoed to the cell plate immediately after the cells were plated. After 72 h incubation at 37° C. incubator, 10 μL CellTiter-glo reagent (Promega catalog number G7570) was added to each well. The plate was vigorously shaken for 5 mins, incubated at room temperature for another 15 mins and read on Envision for CD8 T cell proliferation. In analysis, 0.1 μg/mL anti-CD3 and 0.5 μg/mL anti-CD28 stimulated CD8 T cell signal was background.

For test [6], the target named is DGKα (Homo sapiens (Human), UniProt P23743). In words: biochemical. Format: biochemical. The following applies: liposome (LIPGLO) assay.
Chain of DGKα (P23743 whole entry, looked up): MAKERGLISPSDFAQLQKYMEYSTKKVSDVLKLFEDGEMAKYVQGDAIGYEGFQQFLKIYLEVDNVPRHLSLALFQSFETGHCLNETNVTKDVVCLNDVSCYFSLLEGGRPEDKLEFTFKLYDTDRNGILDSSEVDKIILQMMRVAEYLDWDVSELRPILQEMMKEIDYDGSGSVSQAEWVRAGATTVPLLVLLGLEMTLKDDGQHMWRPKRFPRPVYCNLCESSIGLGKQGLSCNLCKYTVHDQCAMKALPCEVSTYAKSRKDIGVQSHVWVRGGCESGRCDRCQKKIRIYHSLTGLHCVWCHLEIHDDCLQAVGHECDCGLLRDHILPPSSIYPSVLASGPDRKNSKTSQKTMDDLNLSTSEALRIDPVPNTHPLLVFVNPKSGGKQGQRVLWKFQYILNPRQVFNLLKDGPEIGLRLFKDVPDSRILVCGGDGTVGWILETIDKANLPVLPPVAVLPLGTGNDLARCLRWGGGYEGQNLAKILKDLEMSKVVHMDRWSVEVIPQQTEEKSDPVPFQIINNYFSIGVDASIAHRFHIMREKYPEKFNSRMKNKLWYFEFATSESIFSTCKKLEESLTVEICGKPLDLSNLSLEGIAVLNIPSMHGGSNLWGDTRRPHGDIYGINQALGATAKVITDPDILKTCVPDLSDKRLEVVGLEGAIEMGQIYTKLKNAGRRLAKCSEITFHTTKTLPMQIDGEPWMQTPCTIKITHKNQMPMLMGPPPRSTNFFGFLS
Setting [7] is: Homo sapiens, read-out: INFg Whole Blood, human whole blood IFN-γ.
Setting [8] is: read-out: DGK HWB, human whole blood pERK.
The mark [9] stands for this setting: Homo sapiens, CD8 positive, human whole blood pERK, read-out: DGK HWB.
[10] abbreviates: read-out: INFg Whole Blood, human whole blood IFN-γ.
Where [11] appears, read: human whole blood pERK, read-out: DGK HWB.

Chain of human DGKζ (Q13574 whole entry, looked up): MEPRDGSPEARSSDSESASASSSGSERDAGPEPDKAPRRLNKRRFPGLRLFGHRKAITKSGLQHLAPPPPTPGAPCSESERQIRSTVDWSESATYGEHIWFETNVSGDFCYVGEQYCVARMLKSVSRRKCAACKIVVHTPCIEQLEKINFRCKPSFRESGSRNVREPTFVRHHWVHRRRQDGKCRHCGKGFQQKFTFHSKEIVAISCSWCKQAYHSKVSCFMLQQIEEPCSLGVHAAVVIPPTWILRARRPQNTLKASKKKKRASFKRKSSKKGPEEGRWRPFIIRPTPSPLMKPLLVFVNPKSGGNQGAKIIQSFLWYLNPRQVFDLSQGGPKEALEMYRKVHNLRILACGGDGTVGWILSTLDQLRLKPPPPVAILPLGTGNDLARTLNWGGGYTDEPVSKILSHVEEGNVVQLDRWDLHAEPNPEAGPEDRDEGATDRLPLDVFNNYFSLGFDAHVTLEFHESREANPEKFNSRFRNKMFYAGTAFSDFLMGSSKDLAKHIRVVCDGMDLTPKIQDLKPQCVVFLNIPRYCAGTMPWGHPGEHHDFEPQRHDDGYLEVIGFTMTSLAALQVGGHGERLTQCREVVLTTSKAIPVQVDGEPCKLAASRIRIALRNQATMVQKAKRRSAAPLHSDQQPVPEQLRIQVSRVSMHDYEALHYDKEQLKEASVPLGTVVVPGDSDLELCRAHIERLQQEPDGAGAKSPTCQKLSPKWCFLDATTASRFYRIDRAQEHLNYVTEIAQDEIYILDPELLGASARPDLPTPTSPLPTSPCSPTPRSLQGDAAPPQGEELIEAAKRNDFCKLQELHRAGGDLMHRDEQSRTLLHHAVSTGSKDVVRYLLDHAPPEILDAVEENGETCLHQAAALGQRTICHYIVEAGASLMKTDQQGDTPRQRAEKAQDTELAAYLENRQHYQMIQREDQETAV
Chain of Human DGKα(9-727) (P23743 whole entry, looked up): as the sequence (P23743 whole entry, looked up) above

As for `CC(C)Oc1ccc(OC2C[C@@H](C)N(c3nc(=O)n(C)c4ccc(C#N)nc34)C[C@H]2C)nc1` (single isomer, unassigned) [Example 244, (±)-Cis-(-4-((5-isopropoxypyridin-2-yl)oxy)-2,5-dimethylpiperidin-1-yl)-1-methyl-2-oxo-1,2-dihydropyrido[3,2-d]pyrimidine-6-carbonitrile], the IC50 in test [1] (Table A, read-out: DGKζ) came out at 920 nM; in test [2], 320 nM. For the same compound, the EC50 in test [3] (setting [7]) came out at 780 nM; in test [4] (setting [8]), 3100 nM.
With `CCO[C@H]1CN(c2cc(=O)n(C)c3ccc(C#N)nc23)CC[C@H]1Oc1cccc(C(F)(F)F)c1` (single isomer, unassigned) [Example 370, cis-8-(3-Ethoxy-4-(3-(trifluoromethyl)phenoxy)piperidin-1-yl)-5-methyl-6-oxo-5,6-dihydro-1,5-naphthyridine-2-carbonitrile], the IC50 in test [1] (Table A, read-out: DGKζ) came out at 5600 nM; in test [2], 5100 nM. The EC50 in test [4] (setting [9]) amounted to 6700 nM.
In the case of `CC(C)Oc1ccc(OC2C[C@@H](C)N(c3nc(=O)n(C)c4ccc(C#N)nc34)C[C@H]2C)nc1` (single isomer, unassigned) [Example 245, (±)-Cis-(-4-((5-isopropoxypyridin-2-yl)oxy)-2,5-dimethylpiperidin-1-yl)-1-methyl-2-oxo-1,2-dihydropyrido[3,2-d]pyrimidine-6-carbonitrile], the IC50 in test [1] (Table A, read-out: DGKζ) amounted to 50 nM; in test [2], 430 nM. For the same compound, the figures for the EC50 in test [3] (setting [10]) and in test [4] (setting [8]) were 410 nM and 800 nM, respectively.
Consider `CC(C)c1ccc(OC2CCN(c3c([N+](=O)[O-])c(=O)n(C)c4ccc(F)cc34)CC2)cc1` [Example 2, 6-fluoro-4-(4-(4-isopropylphenoxy)piperidin-1-yl)-1-methyl-3-nitroquinolin-2(1H)-one], for which the EC50 in test [5] amounted to 340 nM.
`CC[C@@H]1CN(c2cc(=O)n(C)c3ccc(C#N)nc23)CC[C@H]1Oc1cccc(C(C)(C)C)c1` (single isomer, unassigned) [Example 197]: the IC50 in test [6] (Table A, read-out: DGKα) was found to be 11 nM; in test [1] (Table A, read-out: DGKζ), 250 nM; in test [2], 5.4 nM. In addition, the EC50 in test [3] (setting [10]) came out at 570 nM; in test [4] (Homo sapiens, CD8 positive, read-out: DGK HWB, human whole blood pERK) it was 600 nM.
Turning to `CCC(C)(C)c1ccc(O[C@@H]2CCN(c3c(C#N)c(=O)n(C)c4ccc(C#N)nc34)C[C@H]2C)cc1` (single isomer, unassigned) [Example 231, 5-methyl-8-(trans-3-methyl-4-(4-(tert-pentyl)phenoxy)piperidin-1-yl)-6-oxo-5,6-dihydro-1,5-naphthyridine-2,7-dicarbonitrile (rel)], the IC50 stood at 490 nM in test [6] (Table A, read-out: DGKα); 83000 nM in test [1] (Table A, read-out: DGKζ); 1600 nM in test [2]. Also, the EC50 in test [3] (Homo sapiens, human whole blood IFN-γ, read-out: INFg Whole Blood) amounted to 510 nM; in test [4] (setting [9]) it was 400 nM.
Regarding `Cn1c(=O)c([N+](=O)[O-])c(N2CCC(Oc3cccc(F)c3)CC2)c2cc(F)ccc21` [Example 9, 6-fluoro-4-(4-(3-fluorophenoxy)piperidin-1-yl)-1-methyl-3-nitroquinolin-2(1H)-one], the EC50 in test [5] stood at 790 nM.
Regarding `Cn1c(=O)c(C#N)c(N2CCC(Oc3ccc(F)cc3)CC2)c2nc(Cl)ccc21` [Example 20, 6-chloro-4-(4-(4-fluorophenoxy)piperidin-1-yl)-1-methyl-2-oxo-1,2-dihydro-1,5-naphthyridine-3-carbonitrile], the IC50 worked out at 430 nM in test [6] (read-out: DGKα LIPGLO IC50) and 16000 nM in test [1] (read-out: DGKζ LIPGLO IC50). In addition, in test [5], the EC50 turned out to be 870 nM.
As to `Cc1cccc(OC2CCN(c3c([N+](=O)[O-])c(=O)n(C)c4ccc(F)cc34)CC2)c1` [Example 4, 6-fluoro-1-methyl-3-nitro-4-(4-(m-tolyloxy)piperidin-1-yl)quinolin-2(1H)-one], the EC50 in test [5] was found to be 440 nM.
As to `Cn1c(=O)c([N+](=O)[O-])c(N2CCC(Oc3cccc4[nH]ncc34)CC2)c2cc(F)ccc21` [Example 5, 4-(4-((1H-indazol-4-yl)oxy)piperidin-1-yl)-6-fluoro-1-methyl-3-nitroquinolin-2(1H)-one], the EC50 in test [5] stood at 10000 nM.
As to `CC1CN(c2c(C#N)c(=O)n(C)c3ccc(C#N)nc23)CCC1N(C)Cc1ccc(F)cc1` (single isomer, unassigned) [Example 325, 8-(4-((4-Fluorobenzyl)(methyl)amino)-3-methylpiperidin-1-yl)-5-methyl-6-oxo-5,6-dihydro-1,5-naphthyridine-2,7-dicarbonitrile], the IC50 in test [1] (Table A, read-out: DGKζ) was found to be 50000 nM; in test [2], 49000 nM. The EC50 in test [4] (setting [11]) was found to be 20000 nM.
Take `COc1ccc(C(F)(F)F)cc1OC1CCN(c2c([N+](=O)[O-])c(=O)n(C)c3ccc(F)cc23)CC1` [Example 8, 6-fluoro-4-(4-(2-methoxy-5-(trifluoromethyl)phenoxy)piperidin-1-yl)-1-methyl-3-nitroquinolin-2(1H)-one]: the EC50 in test [5] came out at 320 nM.
Take `CC1CN(c2cc(=O)n(C)c3ccc(C#N)nc23)CCC1N(C)C(=O)c1ccc(F)cc1` (single isomer, unassigned) [Example 284, N-(1-(6-Cyano-1-methyl-2-oxo-1,2-dihydro-1,5-naphthyridin-4-yl)-3-methylpiperidin-4-yl)-4-fluoro-N-methylbenzamide]: the IC50 in test [1] (Table A, read-out: DGKζ) stood at 120000 nM; in test [2], 23000 nM. For the same compound, the EC50 in test [4] (setting [11]) stood at 20000 nM.
`CC1CN(c2cc(=O)n(C)c3ccc(C#N)nc23)CCC1N(C)C(=O)c1ccc(F)cc1` (single isomer, unassigned) [Example 286, N-(1-(6-Cyano-1-methyl-2-oxo-1,2-dihydro-1,5-naphthyridin-4-yl)-3-methylpiperidin-4-yl)-4-fluoro-N-methylbenzamide]: the IC50 in test [1] (Table A, read-out: DGKζ) was 9200 nM; in test [2], 5200 nM. For the same compound, in test [4] (setting [11]), the EC50 was 8700 nM.
On to `CC(C)Oc1ccc(OC2C[C@H](C)N(c3nc(=O)n(C)c4ccc(C#N)nc34)C[C@@H]2C)nc1` (mixture of isomers) [Example 246, (±)-Cis-(-4-((5-isopropoxypyridin-2-yl)oxy)-2,5-dimethylpiperidin-1-yl)-1-methyl-2-oxo-1,2-dihydropyrido[3,2-d]pyrimidine-6-carbonitrile], for which the IC50 in test [1] (Table A, read-out: DGKζ) stood at 870 nM; in test [2], 69 nM. Moreover, the EC50 was determined as 450 nM in test [3] (setting [7]) and 830 nM in test [4] (setting [8]).
Consider `CC1CN(c2cc(=O)n(C)c3ccc(C#N)nc23)CCC1N(C)C(=O)c1ccc(F)cc1` (single isomer, unassigned) [Example 285, N-(1-(6-Cyano-1-methyl-2-oxo-1,2-dihydro-1,5-naphthyridin-4-yl)-3-methylpiperidin-4-yl)-4-fluoro-N-methylbenzamide], for which the IC50 in test [1] (Table A, read-out: DGKζ) turned out to be 130000 nM; in test [2], 30000 nM. In addition, in test [4] (setting [11]), the EC50 was determined as 20000 nM.
With `CC1CN(c2c(C#N)c(=O)n(C)c3ccc(C#N)nc23)CCC1N(C)Cc1ccc(F)cc1` (single isomer, unassigned) [Example 323, 8-(4-((4-Fluorobenzyl)(methyl)amino)-3-methylpiperidin-1-yl)-5-methyl-6-oxo-5,6-dihydro-1,5-naphthyridine-2,7-dicarbonitrile], the IC50 in test [1] (Table A, read-out: DGKζ) is 18000 nM; in test [2], 3500 nM. The EC50 in test [4] (setting [11]) was 12000 nM.
In the case of `CO[C@H]1CN(c2cc(=O)n(C)c3ccc(C#N)nc23)CC[C@@H]1Oc1ccc(OC(C)C)cn1` (single isomer, unassigned) [Example 269, (±)-trans-8-(4-((5-isopropoxypyridin-2-yl)oxy)-3-methoxypiperidin-1-yl)-5-methyl-6-oxo-5,6-dihydro-1,5-naphthyridine-2-carbonitrile], the IC50 in test [1] (Table A, read-out: DGKζ) turned out to be 1500 nM; in test [2], 47 nM. Besides, the EC50 in test [4] (setting [9]) was 2100 nM.
For `Cn1c(=O)c([N+](=O)[O-])c(N2CCC(Oc3cccc(C#N)c3)CC2)c2cc(F)ccc21` [Example 6, 3-((1-(6-fluoro-1-methyl-3-nitro-2-oxo-1,2-dihydroquinolin-4-yl)piperidin-4-yl)oxy)benzonitrile], the EC50 in test [5] was 10000 nM.
On to `Cn1c(=O)c([N+](=O)[O-])c(N2CCC(Oc3cccc(Cl)c3)CC2)c2cc(F)ccc21` [Example 7, 4-(4-(3-chlorophenoxy)piperidin-1-yl)-6-fluoro-1-methyl-3-nitroquinolin-2(1H)-one], for which, in test [5], the EC50 is 2300 nM.
